Laboratory results taken from patent publication US20240373849A1, “INSECT NEUROPEPTIDE ANALOGUES” (THE UNIVERSITY COURT OF THE UNIVERSITY OF GLASGOW, priority 2020, published 2024).
Square brackets hold non-standard residues; d marks the D form. NMeL = CN[C@@H](CC(C)C)C(=O)O; NMeV = CN[C@H](C(=O)O)C(C)C; NMeA = CN[C@@H](C)C(=O)O; Aib = CC(C)(N)C(=O)O

Legend:
[1] = tested on: Drosophila suzukii larvae; test: Drosophila suzukii larval feeding (Example 8; peptide screening); assay type: in vivo; conditions: for Feeding D. suzukii, % lethality in population after adjustment for baseline: 10^−5 M, 48 hr exposure
Method: (§1) First to Fourth generations of peptides were produced with varying structures and tested for CAPA receptor agonist activity, and screened for lethality in vivo against D. suzukii and M. persicae as per methods in example 2 and example 8. The top performing peptides were selected and gave rise to the list of CAPA1 and CAPA2 peptides provided above in Table 1 which were then further tested in the following applied examples.
Peptides were tested at concentrations ranging from [10^−4 M] to [10^−7 M] in a final volume of 200 μl of 0.8% agarose containing 0.09% m-Cresol purple pH marker dye (Sigma) and 5% sucrose (Sigma).
Agarose was melted in dH2O, before addition of sucrose and dye. The agarose/dye solution was then allowed to cool to 60° C. 96 well plates (flat-bottomed 3596 TC-plates; Corning) containing 20 μl volumes of neuropeptide per well were prepared, and 180 μl agarose/dye solution dispensed into each well via a Distriman repetitive micro-pipettor (Gilson). Controls contained 20 μl dH2O as a ‘sham’ treatment with 180 μl of the 0.8% agarose/dye solution. Plates were agitated at 800 rpm, to ensure mixing, at 60° C. (Eppendorf Thermomixer C). Plates were then allowed to cool, and agarose/dye solution solidify, prior to use.
Each peptide was assayed with a minimum of 7 to maximum 9 late L2/early L3 Spotted wing Drosophila, Drosophila suzukii, (feeding) larvae per well, minimum n=8 wells per peptide concentration and a minimum n=12 control wells per plate. The selected larvae were first washed 2× in ice cold Drosophila Schneider's liquid medium (ThermoFisher) before insertion into wells to remove extraneous food. After complete insertion of all larvae the plates were covered with breathable sealing membrane for multi-well plates (Sigma).
Larvae were assayed for lethality after 48 hr exposure at 21° C. and findings recorded. During examination the assay plate was kept on ice, to reduce larval locomotor activity (wandering), and larvae in each well were examined using a binocular stereomicroscope (Zeiss).
The water control group was used to determine baseline lethality. Results for neuropeptide analogues were calculated as % lethality in the remaining population after adjustment for the baseline. Results are shown in Tables 7 and 8 below, and in FIG. 1.

[2] = tested on: D. suzukii larvae; test: Drosophila suzukii larval feeding (Example 9; dose response); assay type: in vivo; conditions: for % Lethality ± SEM: Table 6, 10^−5 M, 48 hr and/or 72 h exposure (FIG. 7: AH270/PEGAH270 120 h)
Method: Dose response experiments were carried out for AH382, AH383, AH188, data shown for AH382 (a), AH383 (b), AH188 (c, 48 hours). Data are mean % lethality ±SEM for concentrations between 10^−4 M and 10^−7 M (a) AH382, (b) AH383 72 hours treatment; and between 10^−5 M and 10^−9 M (AH188, 3c), 48 hours treatment. The LD50 for AH382, AH383 and AH188 is 10^−6 M.
Further larval feeding assays with D. suzukii larvae were conducted as explained above in example 7. A total of 88 peptides were tested against D. suzukii larvae in 96 well plates at 10^−5 M in a final volume of 200 μl of 0.8% agarose containing 0.09% m-Cresol purple pH marker dye (Sigma) and 5% sucrose (Sigma). Controls contained dH2O (18% lethality) or native Capa-2 peptide (38% lethality) as a ‘sham’ treatment. Each peptide was assayed with a minimum of 7 to maximum 9 late L2/early L3 larvae per well, minimum n=8 wells per peptide concentration (minimum 56 larvae) and a minimum n=12 control wells (minimum 84 larvae) per plate. Larvae were assayed for lethality after 48 hr and/or 72 h exposure at 21° C. using a binocular stereomicroscope and findings recorded. Candidate peptides were also tested between 10^-4 and 10^-7 M (dose response curve).
Candidate peptides for D. suzukii with 70%-90% lethality are indicated below, in Table 6.

[3] = tested on: M. persicae; test: Feeding of aphids with peptides in artificial diet (Example 1); assay type: in vivo, Myzus persicae
Method: A standard artificial diet for M. persicae was produced as described in Van Emden (2009) and provided the basal diet to which peptides were added for screening purposes. Peptides were diluted individually in the artificial diet to a pre-determined concentration.
Feeding apparatus were constructed using a set-up developed by Sadeghi et al (2009). For this, a piece of Parafilm was stretched over a Plexiglas ring (h=4 cm, Ø=3 cm) and 100 μl of the artificial diet containing the desired neuropeptide analogue was pipette onto the Parafilm membrane. A second piece of Parafilm, stretched to 4 times the original thickness, was stretched over the original layer, sandwiching the artificial diet between two layers of Parafilm. A strip of Parafilm was wrapped around the circumference of the Plexiglas ring, sealing in the diet. A plastic ring (h=1.2 cm, Ø=3.4 cm) was subsequently placed over the Parafilm layer, creating a walled chamber in which to house test aphids in contact with the Parafilm layer containing the artificial diet. Finally, a small Petri dish (h=1 cm, Ø=3.6 cm), modified for ventilation with net cloth, was placed on top of each feeding apparatus to prevent aphid escape.
To obtain aphids for use in experiments, reproducing anholocyclic adults were placed on individual excised leaves of Chinese cabbage at densities of 5 adults per leaf and allowed to reproduce for 24 h. The stem of each excised leaf was held within a 0.5 mL Eppendorf tube containing water via a punctured hole in the Eppendorf lid, and placed individually within a microcage (L=4 cm, Ø=9.5 cm). Following 24h, adults were removed and resultant first instar nymphs (<1 day old and synchronised in age to within 24h) retained. Nymphs were allowed to develop on the Chinese cabbage for 5 days. On day 5, (3rd instar) nymphs were transferred onto the artificial diet containing a neuropeptide analogue at densities of 1 per feeding chamber and monitored daily until death. Aphids were transferred to fresh artificial diet (containing neuropeptide analogue or water control) every 5 days.
The water control group was used to determine baseline lethality. Results for neuropeptide analogues were calculated as % lethality in the remaining population after adjustment for the baseline.

[4] = tested on: M. persicae; test: Feeding of aphids with peptides in artificial diet (Example 2; peptide screening, honeydew); assay type: in vivo, Myzus persicae
Excerpt: as §1
The aphid feeding protocol was devised according to Sadeghi et al (2009) as explained in example 1. Feeding discs were designed and manufactured as above. A standard sucrose-based artificial diet for M. persicae (30 aphids per chamber, 3 chambers per experiment unless otherwise stated) was produced as described in example 1 (Sadeghi et al, J. Insect Science, 2009) and provided the basal diet to which peptides were added for screening purposes. Peptides were diluted individually in the artificial diet to 10^−5 M. Lethality was scored after up to 120 hours (IRAC guidelines for aphid testing).
Membrane discs were also included to collect ‘honeydew’ secreted by feeding aphids and stained with ninhydrin to observe feeding patterns.
Comparison of purple stain in controls to treated aphids, show there is very little colour on many membranes where peptides were added.
Capa peptides cause mortality in M. persicae via feeding: At 120 hours, AH383 and AH387 peptides induce ˜60% mean (and median) lethality. Although mean lethality is lower with AH270/PEGAH270 (40%), 100% lethality is observed in one sample of 30 insects (AH270); and 90% in at least one sample of each of AH383, AH387 and PEGAH270 (FIG. 3). Note that PEGAH270 is a pegylated form of peptide AH270.

[5] = tested on: Myzus persicae aphids; test: Topical application by spraying, Potter Spray Tower (Example 3); assay type: in vivo; conditions: 48 hours post spray
Method: Aphids were exposed to test peptides in the absence of additional external stress conditions.
Brassica rapa (Chinese cabbage; Wong Bok) were infested with 30 adult Myzus persicae aphids per plant. Aphids were left at least 2 hours to settle and begin feeding from the host plant.
Potter Spray Tower (Burkard Manufacturing) was ‘primed’ by spraying 1000 μl of liquid coating the inside of the tower. Vehicle spray only (Croda ATPlus UEP 100 LQ-(CQ) 0.1% v/v) was used as a control.
Spray volumes for all solutions were 3000 μl. […] After spraying was completed the plant was allowed to rest on the spray platform for 30 seconds to allow settling of the sprayed chemical.
Post peptide application, each condition was placed into its own individual Bugdorm (Watkins and Doncaster, 44545), to prevent repulsed or displaced aphids moving from one condition to another. Numbers of alive and dead aphids on the plant were counted 48 hours post spray, and the presence of any fresh nymphs noted. Plants were watered prior to spraying but not afterwards to eliminate the possibility of drowning any aphids present or washing off the sprayed liquid.
The vehicle control group was used to determine baseline lethality. Results for neuropeptide analogues were calculated as % lethality in the remaining population after adjustment for the baseline.

[6] = biological target: T1, Drosophila melanogaster capa GPCR, capaR (Drosophila melanogaster, UniProt Q8ITC7 1-477); test: cell-based or functional assay
T1 sequence (looked up): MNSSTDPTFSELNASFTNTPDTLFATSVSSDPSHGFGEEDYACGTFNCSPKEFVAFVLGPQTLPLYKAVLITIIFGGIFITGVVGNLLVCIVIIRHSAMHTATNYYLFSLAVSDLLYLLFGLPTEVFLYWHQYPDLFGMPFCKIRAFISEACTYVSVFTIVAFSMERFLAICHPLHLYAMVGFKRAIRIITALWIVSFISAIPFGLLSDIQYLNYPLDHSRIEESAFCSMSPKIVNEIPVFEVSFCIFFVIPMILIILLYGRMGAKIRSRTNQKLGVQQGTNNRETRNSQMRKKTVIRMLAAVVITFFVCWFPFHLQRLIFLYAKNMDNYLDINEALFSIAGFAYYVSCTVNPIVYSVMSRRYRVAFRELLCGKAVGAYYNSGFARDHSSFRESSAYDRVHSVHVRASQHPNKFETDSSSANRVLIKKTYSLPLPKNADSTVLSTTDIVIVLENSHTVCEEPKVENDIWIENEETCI

## H-LYAFARV-NH2 [AH188]
[1]
  Feeding D. suzukii, % lethality in population after adjustment for baseline: 71%
[1]; Peptide screening, Table 5, blank control 20.33
  D. suzukii (Mean% Lethality ± SD): 70.50%
[1]; Peptide screening, Table 5, difference in survival
  D. suzukii (Sig Diff Grp): ABC
[2]; 48 hours treatment
  LD50: 10^−6 M
[2]
  % Lethality ± SEM: 71 ± 6%
[3]; 10^−4 M
  Feeding Aphid, % lethality in population after adjustment for baseline: 23%
[3]; 10^−5 M
  Feeding Aphid, % lethality in population after adjustment for baseline: 23%
[3]; 10^−5 M, @72 h
  Feeding Aphid, % lethality in population after adjustment for baseline: 1 (33%@72 h)
[3]; 10^−6 M
  Feeding Aphid, % lethality in population after adjustment for baseline: 22%
[3]; 10^−7 M
  Feeding Aphid, % lethality in population after adjustment for baseline: 17%
[4]; Peptide screening, Table 5
  M. persicae (% Lethality): 22%
[5]; 10^−4 M
  Spray Aphid, % lethality in population after adjustment for baseline: 2%

## H-(Me)L-YAFARV-NH2 (H-[NMeL]YAFARV-NH2; SMILES CN[C@@H](CC(C)C)C(=O)N[C@@H](Cc1ccc(O)cc1)C(=O)N[C@@H](C)C(=O)N[C@@H](Cc1ccccc1)C(=O)N[C@@H](C)C(=O)N[C@@H](CCCNC(=N)N)C(=O)N[C@H](C(N)=O)C(C)C) [AH383]
[1]
  Feeding D. suzukii, % lethality in population after adjustment for baseline: 56%
[2]; 72 hours treatment
  LD50: 10^−6 M
[2]
  % Lethality ± SEM: 80 ± 3%
[3]; 10^−5 M
  Feeding Aphid, % lethality in population after adjustment for baseline: 10%
[4]; M. persicae feeding, 10^−5 M, 120 hours
  mean lethality: ~60%
[4]; M. persicae feeding, 10^−5 M, 120 hours, single sample
  lethality observed in one sample of 30 insects: 90%
[5]; 10^−4 M
  Spray Aphid, % lethality in population after adjustment for baseline: 42%
[5]; 10^−5 M
  Spray Aphid, % lethality in population after adjustment for baseline: 13%

B1: AH383 (H-(Me)L-YAFARV-NH2) (peptide)
peptide: H-[NMeL]YAFARV-NH2
SMILES: CN[C@@H](CC(C)C)C(=O)N[C@@H](Cc1ccc(O)cc1)C(=O)N[C@@H](C)C(=O)N[C@@H](Cc1ccccc1)C(=O)N[C@@H](C)C(=O)N[C@@H](CCCNC(=N)N)C(=O)N[C@H](C(N)=O)C(C)C
[6]
  CapaR Ca^2+ Agonist response at 10^-7 M: 26 % of native Capa1 activity

B2: AH387 (H-LY-Aib-FARV-NH2) (peptide)
peptide: H-LY[Aib]FARV-NH2
SMILES: CC(C)C[C@H](N)C(=O)N[C@@H](Cc1ccc(O)cc1)C(=O)NC(C)(C)C(=O)N[C@@H](Cc1ccccc1)C(=O)N[C@@H](C)C(=O)N[C@@H](CCCNC(=N)N)C(=O)N[C@H](C(N)=O)C(C)C
[6]
  CapaR Ca^2+ Agonist response at 10^-7 M: 17 % of native Capa1 activity

B3: AH188 (H-LYAFARV-NH2) (peptide)
peptide: H-LYAFARV-NH2
[6]
  CapaR Ca^2+ Agonist response at 10^-7 M: 64 % of native Capa1 activity

B4: AH380 (H-LYAFAR-(Me)V-NH2) (peptide)
peptide: H-LYAFAR[NMeV]-NH2
SMILES: CC(C)C[C@H](N)C(=O)N[C@@H](Cc1ccc(O)cc1)C(=O)N[C@@H](C)C(=O)N[C@@H](Cc1ccccc1)C(=O)N[C@@H](C)C(=O)N[C@@H](CCCNC(=N)N)C(=O)N(C)[C@H](C(N)=O)C(C)C
[6]
  CapaR Ca^2+ Agonist response at 10^-7 M: 14 % of native Capa1 activity

B5: AH382 (H-LY-(Me)A-FARV-NH2) (peptide)
peptide: H-LY[NMeA]FARV-NH2
SMILES: CC(C)C[C@H](N)C(=O)N[C@@H](Cc1ccc(O)cc1)C(=O)N(C)[C@@H](C)C(=O)N[C@@H](Cc1ccccc1)C(=O)N[C@@H](C)C(=O)N[C@@H](CCCNC(=N)N)C(=O)N[C@H](C(N)=O)C(C)C
[6]
  CapaR Ca^2+ Agonist response at 10^-7 M: 36 % of native Capa1 activity
